We go through 17 compounds from the SangsterLogP compilation.

Assay in the first data set: not given
With `CCN(CC)C(=O)Cn1c(C)nc2ccccc2c1=O`, the logP – broadly, a log measure of how a compound divides between an organic and an aqueous phase – amounted to 1.14.
In turn, `Cc1nc2ccccc2c(=O)n1CC(=O)Nc1c(C)n(C)n(-c2ccccc2)c1=O` yielded a logP of 1.07.
The compound `Cc1nc2ccccc2c(=O)n1CC(=O)N1CCCCC1` showed a logP of 1.42.
Compound `Cc1nc2ccccc2c(=O)n1CC(=O)NCc1ccco1` displayed a logP of 1.24.
For the compound `COC(=O)c1ccc(C(=O)OC)c(NC(=O)Cn2c(C)nc3ccccc3c2=O)c1`, the lipophilicity (logP) was determined as 3.53.
Turning to `Cc1cc(C)nc(NS(=O)(=O)c2ccc(NC(=O)Cn3c(C)nc4ccccc4c3=O)cc2)n1`, the logP came out at 0.7.
With `Cc1nc2ccccc2c(=O)n1CC(=O)NNc1ccccc1`, the logP was 1.34.
As for `Cc1nc2ccccc2c(=O)n1CC(=O)Nc1ccc(S(=O)(=O)NC(=N)N)cc1`, the logP was 0.09.
`COC(=O)c1cc(NC(=O)Cn2c(C)nc3ccccc3c2=O)cc(C(=O)OC)c1` displayed a logP of 2.98.
`COC(=O)CNC(=O)Cn1c(C)nc2ccccc2c1=O` gave a logP of 0.44.
`CCOc1ccc(NC(=O)Cn2c(C)nc3ccccc3c2=O)cc1` displayed a logP of 2.19.
With `Cc1nc2ccccc2c(=O)n1CC(=O)NCc1ccccc1`, the logP was found to be 1.78.
Regarding `CCOC(=O)c1nc2ccccc2c(=O)[nH]1`, the logP came to 0.64.
Still for that read-out and setting: then `Cc1nc2ccccc2c(=O)n1CC(=O)N1CCOCC1`, with 0.45.

Another data set is described as follows: method code SF, from PMID: 10544519.
The compound `COC(=O)Cn1c(C)nc2ccccc2c1=O` yielded a logP of 1.46.
`Cc1nc2ccccc2c(=O)n1CCC(=O)O`: the lipophilicity (logP) came to 0.64.
Compound `Cc1nc2ccccc2c(=O)n1CC(=O)O` registered a log partition coefficient (logP) of 0.08.
